Measured values published in US10899744B2, “Crystalline form of compound suppressing protein kinase activity, and application thereof” (XCOVERY HOLDINGS, INC., priority 2016, dated 2021).
Values after ≈ are worked out from the molar mass of the structure shown. Where a name gives a salt, the structure may show the parent alone. One block for each molecule: values may come before it.

Key:
[1] = cited from earlier work
[2] = Stability of the crystalline form; format: physicochemical
[3] = Solubility determination in water; format: physicochemical; settings: room temperature
[4] = Assay of Dynamic Vapor Sorption (DVS); format: physicochemical; settings: for weight change: range of 0% to 80% RH
[5] = Pharmacokinetics in female SD rats, intragastric gavage; format: in vivo; settings: PO
Method: 6 female SD rats were divided into two groups, three rats in each group. 50 mg/kg of Crystalline form A of the compound of formula I and free base amorphis of the compound of formula I were administered by intragastric gavage at single dose to each female SD rat respectively; the blood samples were collected through the jugular vein at the specified time, and the plasma from these samples was separated and stored in the refrigerator at −80° C.
For the above plasma from these samples, protein was precipitated using acetonitrile, the supernatant was diluted 3-fold by water, then took 5 μL of the solution for LC-MS/MS test, and data is shown in Table 9: […]

[6] = target: T1, ROS1-GOPC (Homo sapiens, UniProt P08922); assay: Biochemical kinase activity (Reaction Biology Corp)
T1 construct: fused on or other part: Q9HD26 (Golgi-associated PDZ and coiled-coil motif-containing protein)
Method: (§1) Biochemical kinase activity of the compound as shown in formula I was tested by Reaction Biology Corp located in Malvern, Pa., USA. The testing rules is described in Nat Biotechnol.

[7] = target: T2, ALK (Homo sapiens, UniProt Q9UM73); assay: as above
T2 construct: purchased Reaction Biology Corp (contract testing)
Method: as §1

[8] = target: T3, NEK1 (Homo sapiens, UniProt Q96PY6); assay: as above
T3 construct: purchased Reaction Biology Corp (contract testing)
Method: as §1

[9] = target: T4, ALK-NPM1 (Homo sapiens, UniProt Q9UM73); assay: as above
T4 construct: NPM1 part (fusion partner); purchased Reaction Biology Corp (contract testing); the other entry of the earlier key: NPM1 (P06748, Nucleophosmin)
Method: as §1

[10] = target: T5, ALK (T1151-L1152insT) (Homo sapiens, UniProt Q9UM73, INS1151T); assay: as above
T5 construct: purchased Reaction Biology Corp (contract testing)
T5 sequence (Q9UM73 with tags, fused parts or gaps INS1151T limits assumed): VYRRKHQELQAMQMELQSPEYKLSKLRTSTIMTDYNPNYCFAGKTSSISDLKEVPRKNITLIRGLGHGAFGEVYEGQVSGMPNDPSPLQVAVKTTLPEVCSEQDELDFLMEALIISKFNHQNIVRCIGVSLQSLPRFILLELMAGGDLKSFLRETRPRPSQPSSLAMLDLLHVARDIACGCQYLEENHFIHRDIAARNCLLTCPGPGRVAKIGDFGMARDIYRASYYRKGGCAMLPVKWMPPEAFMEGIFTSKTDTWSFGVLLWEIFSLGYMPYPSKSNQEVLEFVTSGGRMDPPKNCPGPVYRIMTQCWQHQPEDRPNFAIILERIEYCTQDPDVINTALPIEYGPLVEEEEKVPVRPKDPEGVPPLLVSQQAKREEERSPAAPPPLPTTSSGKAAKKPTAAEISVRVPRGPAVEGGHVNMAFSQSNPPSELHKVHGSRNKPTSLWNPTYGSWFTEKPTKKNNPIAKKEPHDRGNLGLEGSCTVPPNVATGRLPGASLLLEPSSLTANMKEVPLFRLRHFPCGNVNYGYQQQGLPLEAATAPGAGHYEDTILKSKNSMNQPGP
Method: as §1

[11] = target: T6, TRKA-TPM3 (Homo sapiens, UniProt P04629); assay: as above
T6 construct: fused on or other part: P06753 (Tropomyosin alpha-3 chain)
T6 sequence (P04629 510-796 limits assumed): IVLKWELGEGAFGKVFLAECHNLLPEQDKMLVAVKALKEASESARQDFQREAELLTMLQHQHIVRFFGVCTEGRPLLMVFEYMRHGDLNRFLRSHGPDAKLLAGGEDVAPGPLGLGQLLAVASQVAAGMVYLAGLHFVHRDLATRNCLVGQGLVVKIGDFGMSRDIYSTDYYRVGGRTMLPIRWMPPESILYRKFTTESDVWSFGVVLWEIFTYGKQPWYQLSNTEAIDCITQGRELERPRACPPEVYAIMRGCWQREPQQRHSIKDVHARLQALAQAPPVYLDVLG
Method: as §1

[12] = target: T7, TRKA (Homo sapiens, UniProt P04629); assay: as above
T7 construct: purchased Reaction Biology Corp (contract testing)
Method: as §1

[13] = target: T8, EPHB1 (Homo sapiens, UniProt P54762); assay: as above
T8 construct: purchased Reaction Biology Corp (contract testing)
Method: as §1

[14] = target: T9, ALK(L1152R) (Homo sapiens, UniProt Q9UM73, L1152R); assay: as above
T9 construct: purchased Reaction Biology Corp (contract testing)
Method: as §1

[15] = target: T10, TRKC (Homo sapiens, UniProt Q16288); assay: as above
T10 construct: purchased Reaction Biology Corp
Method: as §1

[16] = target: T11, ALK-TFG (Homo sapiens, UniProt Q9UM73); assay: as above
T11 construct: fused on or other part: Q92734 (Protein TFG)
Method: as §1

[17] = target: T12, ALK(L1196M) (Homo sapiens, UniProt Q9UM73, L1196M); assay: as above
T12 construct: purchased Reaction Biology Corp (contract testing)
Method: as §1

[18] = target: T13, ALK (F1174S) (Homo sapiens, UniProt Q9UM73, F1174S); assay: as above
T13 construct: purchased Reaction Biology Corp (contract testing)
Method: as §1

[19] = target: T14, EPHA2 (Homo sapiens, UniProt P29317); assay: as above
T14 construct: purchased Reaction Biology Corp (contract testing)
Method: as §1

[20] = target: T15, TRKB (Homo sapiens, UniProt Q16620); assay: as above
T15 construct: purchased Reaction Biology Corp
Method: as §1

[21] = target: T16, CSF1R (FMS) (Homo sapiens, UniProt P07333); assay: as above
T16 construct: purchased Reaction Biology Corp (contract testing)
Method: as §1

[22] = target: T17, ROS/ROS1 (Homo sapiens, UniProt P08922); assay: as above
T17 construct: purchased Reaction Biology Corp (contract testing)
Method: as §1

[23] = target: T18, ALK (F1174L) (Homo sapiens, UniProt Q9UM73, F1174L); assay: as above
T18 construct: purchased Reaction Biology Corp (contract testing)
Method: as §1

[24] = target: T19, ALK (R1275Q) (Homo sapiens, UniProt Q9UM73, R1275Q); assay: as above
T19 construct: purchased Reaction Biology Corp (contract testing)
T19 sequence (Q9UM73 19-1620 R1275Q): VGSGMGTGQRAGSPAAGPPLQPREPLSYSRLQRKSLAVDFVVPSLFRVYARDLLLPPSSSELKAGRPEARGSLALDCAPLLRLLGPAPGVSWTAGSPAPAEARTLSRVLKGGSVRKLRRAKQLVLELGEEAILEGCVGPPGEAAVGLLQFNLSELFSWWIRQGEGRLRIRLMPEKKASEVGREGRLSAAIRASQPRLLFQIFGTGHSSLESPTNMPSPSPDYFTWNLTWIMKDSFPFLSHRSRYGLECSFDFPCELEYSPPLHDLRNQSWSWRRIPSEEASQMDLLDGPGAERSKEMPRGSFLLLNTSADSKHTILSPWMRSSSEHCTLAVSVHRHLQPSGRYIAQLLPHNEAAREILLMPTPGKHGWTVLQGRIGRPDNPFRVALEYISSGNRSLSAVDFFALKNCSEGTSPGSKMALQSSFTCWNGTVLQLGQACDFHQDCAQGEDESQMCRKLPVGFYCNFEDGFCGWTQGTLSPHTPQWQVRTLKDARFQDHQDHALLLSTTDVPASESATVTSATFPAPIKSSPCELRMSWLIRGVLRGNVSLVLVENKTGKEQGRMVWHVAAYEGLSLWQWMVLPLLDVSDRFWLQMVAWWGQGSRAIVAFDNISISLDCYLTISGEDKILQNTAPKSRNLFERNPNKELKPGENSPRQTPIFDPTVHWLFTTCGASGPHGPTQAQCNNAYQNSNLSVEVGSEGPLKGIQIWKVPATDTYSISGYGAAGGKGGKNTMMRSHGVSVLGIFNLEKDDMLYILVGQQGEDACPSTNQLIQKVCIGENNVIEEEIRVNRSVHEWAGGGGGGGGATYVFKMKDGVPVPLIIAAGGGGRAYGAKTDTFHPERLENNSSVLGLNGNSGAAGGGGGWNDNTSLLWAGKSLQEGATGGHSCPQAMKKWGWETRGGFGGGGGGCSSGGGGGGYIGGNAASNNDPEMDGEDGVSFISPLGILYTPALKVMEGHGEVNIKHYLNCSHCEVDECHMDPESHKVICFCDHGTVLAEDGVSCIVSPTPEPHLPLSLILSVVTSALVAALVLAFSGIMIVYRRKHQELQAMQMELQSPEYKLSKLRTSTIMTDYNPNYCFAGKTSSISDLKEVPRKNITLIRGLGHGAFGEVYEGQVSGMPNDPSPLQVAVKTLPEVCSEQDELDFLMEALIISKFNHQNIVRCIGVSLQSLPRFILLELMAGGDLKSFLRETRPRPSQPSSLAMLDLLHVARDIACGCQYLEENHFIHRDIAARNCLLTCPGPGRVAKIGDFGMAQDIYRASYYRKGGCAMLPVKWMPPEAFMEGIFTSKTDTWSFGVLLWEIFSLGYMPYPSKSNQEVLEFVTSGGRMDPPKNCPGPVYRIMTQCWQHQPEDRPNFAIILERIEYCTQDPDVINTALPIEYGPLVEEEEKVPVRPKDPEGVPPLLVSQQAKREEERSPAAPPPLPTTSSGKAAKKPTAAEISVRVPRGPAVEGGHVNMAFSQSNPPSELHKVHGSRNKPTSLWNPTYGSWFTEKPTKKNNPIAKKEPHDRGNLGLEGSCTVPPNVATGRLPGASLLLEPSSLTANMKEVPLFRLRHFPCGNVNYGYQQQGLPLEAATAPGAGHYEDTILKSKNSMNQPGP
Method: as §1

[25] = target: T20, ALK (Fl 174L)-EML4 (Homo sapiens, UniProt Q9UM73, F1174L); assay: as above
T20 construct: EML4 part (fusion partner); purchased Reaction Biology Corp (contract testing)
T20 sequence (Q9UM73 1058-1620 F1174L limits assumed): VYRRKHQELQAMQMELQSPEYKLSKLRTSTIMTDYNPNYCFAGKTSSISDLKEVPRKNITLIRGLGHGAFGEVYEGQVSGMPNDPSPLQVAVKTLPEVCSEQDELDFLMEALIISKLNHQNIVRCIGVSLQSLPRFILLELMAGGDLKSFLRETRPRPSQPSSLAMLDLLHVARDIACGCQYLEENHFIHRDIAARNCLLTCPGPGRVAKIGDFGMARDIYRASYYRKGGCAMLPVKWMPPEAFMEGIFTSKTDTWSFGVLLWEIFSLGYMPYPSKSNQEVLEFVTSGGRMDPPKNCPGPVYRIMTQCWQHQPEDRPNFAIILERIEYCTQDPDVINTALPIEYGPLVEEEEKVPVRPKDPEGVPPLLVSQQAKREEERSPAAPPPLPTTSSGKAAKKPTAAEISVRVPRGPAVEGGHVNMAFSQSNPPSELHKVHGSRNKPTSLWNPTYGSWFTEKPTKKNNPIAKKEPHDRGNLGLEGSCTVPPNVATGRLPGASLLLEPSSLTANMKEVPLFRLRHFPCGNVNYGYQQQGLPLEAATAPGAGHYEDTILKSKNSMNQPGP
Method: as §1

[26] = target: T21, ALK (G1269A) (Homo sapiens, UniProt Q9UM73, G1269A); assay: as above
T21 construct: purchased Reaction Biology Corp (contract testing)
Method: as §1

[27] = target: T22, TRKA-TFG (TRK-T3) (Homo sapiens, UniProt P04629); assay: as above
T22 construct: TFG (fusion partner, UniProt Q92734); purchased Reaction Biology Corp; the other entry of the earlier key: TFG (Q92734, Protein TFG)
Method: as §1

[28] = target: T23, ALK (T1151M) (Homo sapiens, UniProt Q9UM73, T1151M); assay: as above
T23 construct: purchased Reaction Biology Corp (contract testing)
Method: as §1

[29] = target: T24, EPHA1 (Homo sapiens, UniProt P21709); assay: as above
T24 construct: purchased Reaction Biology Corp (contract testing)
Method: as §1

[30] = target: T25, ALK (G1269S) (Homo sapiens, UniProt Q9UM73, G1269S); assay: as above
T25 construct: purchased Reaction Biology Corp (contract testing)
Method: as §1

[31] = target: T26, ALK (S1206R) (Homo sapiens, UniProt Q9UM73, S1206R); assay: as above
T26 construct: purchased Reaction Biology Corp (contract testing)
Method: as §1

[32] = target: T27, c-MET (Homo sapiens, UniProt P08581); assay: as above
T27 construct: purchased Reaction Biology Corp (contract testing)
Method: as §1

[33] = target: T28, ALK-TPM3 (Homo sapiens, UniProt Q9UM73); assay: as above
T28 construct: fused on or other part: P06753 (Tropomyosin alpha-3 chain)
Method: as §1

[34] = target: T29, TRKA-TPR (Homo sapiens, UniProt P04629); assay: as above
T29 construct: fused on or other part: P12270 (Nucleoprotein TPR)
T29 sequence (P04629 510-796 limits assumed): as the sequence (P04629 510-796 limits assumed) above
Method: as §1

[35] = target: T30, ALK (Fl 174L)-NPM1 (Homo sapiens, UniProt Q9UM73, F1174L); assay: as above
T30 construct: NPM1 part (fusion partner); purchased Reaction Biology Corp (contract testing); the other entry of the earlier key: NPM1 (P06748, Nucleophosmin)
Method: as §1

[36] = target: T31, ALK (C1156Y) (Homo sapiens, UniProt Q9UM73, C1156Y); assay: as above
T31 construct: purchased Reaction Biology Corp (contract testing)
Method: as §1

[37] = target: T32, ALK (G1202R) (Homo sapiens, UniProt Q9UM73, G1202R); assay: as above
T32 construct: purchased Reaction Biology Corp (contract testing)
T32 sequence (Q9UM73 19-1620 G1202R): as the sequence (Q9UM73 19-1620 R1275Q) above, with G1184R, Q1257R counted along it
Method: as §1

[38] = Sprague-Dawley, rat, 50 mg/kg single dose, plasma

SMILES: C[C@@H](Oc1cc(-c2cnn(C3CCNCC3)c2)cnc1N)c1c(Cl)ccc(F)c1Cl [crizotinib, Crizotinib]
disease control ([1]; Phase I clinical trial): 90%
objective response rate (ORR) ([1]; Phase I clinical trial): 64%
time of treatment until resistance and disease progression ([1]; most patients): 6-18 months

SMILES: C[C@@H]1CN(C(=O)c2ccc(NC(=O)c3cc(O[C@H](C)c4c(Cl)ccc(F)c4Cl)c(N)nn3)cc2)C[C@H](C)N1 [Crystalline form C]
change in crystalline form ([2]; dried in vacuum at room temperature overnight): almost completely converted to Crystalline form A

solubility [3]: 20 to 100 mg/mL (≈ 35.6 to 178 mM)
moisture removed ([4]; 0% RH drying stage): about 1.5%
moisture absorbed ([4]; 0% RH-80% RH range): about 2.3%
moisture removed ([4]; desorption stage, 30% RH): 1.5%
weight change [4]: about 2.3%
change of the weight ([4]; range of 30-80% RH): less than 2%
absorption in vivo compared with the free base amorphis ([5]; 50 mg/kg): higher absorption in vivo
AUC(0-t) [5, 38]: 11600 ng·h/mL
Cmax [5, 38]: 1440 ng/mL
Tmax [5, 38]: 2.67 h
change in crystalline form ([2]; 25° C.-60% RH for 10 days): no change in crystalline form
change in crystalline form ([2]; 40° C.-75% RH for 10 days): no change in crystalline form
change in crystalline form ([2]; 80° C. for 24 hours): no change in crystalline form
SMILES: C[C@@H]1CN(C(=O)c2ccc(NC(=O)c3cc(O[C@H](C)c4c(Cl)ccc(F)c4Cl)c(N)nn3)cc2)C[C@H](C)N1 [Crystalline form A]

IC50 [6]: 0.98 nM
IC50 [7]: 0.16 nM
IC50 [8]: 6.08 nM
IC50 [9]: 0.68 nM
IC50 [10]: 0.26 nM
IC50 [11]: 0.62 nM
IC50 [12]: 8 nM
IC50 [13]: 8.59 nM
IC50 [14]: 0.58 nM
IC50 [15]: 0.46 nM
IC50 [16]: 0.73 nM
IC50 [17]: 0.32 nM
IC50 [18]: 0.17 nM
IC50 [19]: 1.14 nM
IC50 [20]: 3.39 nM
IC50 [21]: 13.4 nM
IC50 [22]: 1.41 nM
IC50 [23]: 0.16 nM
IC50 [24]: 1.06 nM
IC50 [25]: 0.53 nM
IC50 [26]: 1.14 nM
IC50 [27]: 0.46 nM
IC50 [28]: 0.13 nM
IC50 [29]: 6.22 nM
IC50 [30]: 1.39 nM
IC50 [31]: 0.17 nM
IC50 [32]: 9.59 nM
IC50 [33]: 0.21 nM
IC50 [34]: 1.22 nM
IC50 [35]: 0.47 nM
IC50 [36]: 0.28 nM
IC50 [37]: 3.83 nM
SMILES: C[C@@H]1CN(C(=O)c2ccc(NC(=O)c3cc(O[C@H](C)c4c(Cl)ccc(F)c4Cl)c(N)nn3)cc2)C[C@H](C)N1 [compound of Formula I, {5-[(1R)-1-(2,6-dichloro-3-fluorophenyl)ethoxy]-6-aminopyridazin-3-ly}-N-{4-[((3S,5R)-3,5-dimethylpiperazinyl)carbonyl]phenyl} carboxamide hydrochloride]

change in crystalline form ([2]; dried at room temperature or dried in vacuum at room temperature): transformed into Crystalline form B
SMILES: C[C@@H]1CN(C(=O)c2ccc(NC(=O)c3cc(O[C@H](C)c4c(Cl)ccc(F)c4Cl)c(N)nn3)cc2)C[C@H](C)N1 [Crystalline form D]

weight change [4]: about 15.7%
hygroscopicity judgment ([4]; weight change 0-80% RH): extremely hygroscopic
SMILES: C[C@@H]1CN(C(=O)c2ccc(NC(=O)c3cc(O[C@H](C)c4c(Cl)ccc(F)c4Cl)c(N)nn3)cc2)C[C@H](C)N1 [Amorphis]

moisture absorbed ([4]; 10% RH in the adsorption stage): about 4%
weight change [4]: about 2.3%
change of weight ([4]; range of 10-80% RH): less than 2%
moisture removed ([4]; under 10% RH): about 4%
change in crystalline form ([2]; 25° C.-60% RH for 10 days): no change in crystalline form
change in crystalline form ([2]; 40° C.-75% RH for 10 days): no change in crystalline form
change in crystalline form ([2]; 80° C. for 24 hours): no change in crystalline form
SMILES: C[C@@H]1CN(C(=O)c2ccc(NC(=O)c3cc(O[C@H](C)c4c(Cl)ccc(F)c4Cl)c(N)nn3)cc2)C[C@H](C)N1 [Crystalline form B]

change in crystalline form ([2]; placed in a desiccator for 2 days): transformed into Crystalline form A
SMILES: C[C@@H]1CN(C(=O)c2ccc(NC(=O)c3cc(O[C@H](C)c4c(Cl)ccc(F)c4Cl)c(N)nn3)cc2)C[C@H](C)N1 [Crystalline form E]
